# Measurements reported in ChEMBL document CHEMBL4813909, “Heterocyclic Diamidine DNA Ligands as HOXA9 Transcription Factor Inhibitors: Design, Molecular Evaluation, and Cellular Consequences in a HOXA9-Dependant Leukemia Cell Model” (J Med Chem, 2019).
# Active and inactive are the calls of the source. No cut-off for these calls is given here.
# Key:
# [1] = Drug localization in nucleus of mouse MigA9 cells at 20 uM incubated for 2 hrs by TO-PRO-3/propidium iodide staining based by fluorescence microscopy; type: ADME, subcellular; conditions: miga9, 2 h
# [2] = Induction of cell death in mouse MigA9 cells harboring mouse Hoxa9 gene assessed as propidium iodide-positive cells at 5 uM incubated for 24 hrs by propidium iodide staining based flow cytometry (reference value: 9.06 +/- 0.53%); type: functional
# [3] = Induction of cell death in mouse MigA9 cells harboring mouse Hoxa9 gene assessed as propidium iodide-positive cells at 5 uM incubated for 48 hrs by propidium iodide staining based flow cytometry (reference value: 8.75 +/- 0.2%); type: functional
# [4] = Induction of cell cycle arrest in mouse MigA9 cells harboring mouse Hoxa9 gene assessed as accumulation at sub-G1 phase at 5 uM incubated for 48 hrs by propidium iodide staining based flow cytometry (reference value: 0.76 +/- 0.1%); type: functional
# [5] = Induction of cell cycle arrest in mouse MigA9 cells expressing mouse Hoxa9 assessed as accumulation at G0/G1 phase at 5 uM incubated for 48 hrs by EdU/propidium iodide staining based flow cytometry (reference value: 48.77 +/- 0.19%); type: functional
# [6] = Induction of cell cycle arrest in mouse MigA9 cells expressing mouse Hoxa9 assessed as accumulation at S phase at 5 uM incubated for 48 hrs by EdU/propidium iodide staining based flow cytometry (reference value: 46.68 +/- 0.21%); type: functional
# [7] = Induction of cell cycle arrest in mouse MigA9 cells expressing mouse Hoxa9 assessed as accumulation at G2/M phase at 5 uM incubated for 48 hrs by EdU/propidium iodide staining based flow cytometry (reference value: 4.55 +/- 0.16%); type: functional
# HOXA9 DNA binding site [8] = conditions: dose 1.0 µM
# HOXA9 DNA binding site [9] = assay: Inhibition of HOXA9 (unknown origin) expressed in reticulocyte lysate system binding to 32P-radiolabeled DNA Hoxa9-binding site (strand a-CTGCGATGATTTACGACCGC /strand b-GCGGTCGTAAATCATCGCAG) (unknown origin) assessed as HOXA9/DNA inhibition at 2.5 to 20 uM incubated for 20 mins by electrophoretic mobility shift assay relative to control; type: subcellular; conditions: dose 2.5-20 µM
# [10] = Induction of cell death in mouse MigA9 cells harboring mouse Hoxa9 gene assessed as propidium iodide-positive cells at 15 uM incubated for 24 hrs by propidium iodide staining based flow cytometry (reference value: 9.06 +/- 0.53%); type: functional
# HOXA9 DNA binding site [11] = conditions: dose 0.5 µM
# [12] = Drug localization in nucleus of human HT-29 cells at 5 uM incubated for 16 hrs by DiOC6/propidium iodide staining based by fluorescence microscopy; type: ADME, subcellular; conditions: ht-29, 16 h
# [13] = Induction of cell death in mouse MigA9 cells harboring mouse Hoxa9 gene assessed as propidium iodide-positive cells at 0.5 uM incubated for 24 hrs by propidium iodide staining based flow cytometry (reference value: 9.06 +/- 0.53%); type: functional
# [14] = Induction of cell death in mouse MigA9 cells harboring mouse Hoxa9 gene assessed as propidium iodide-positive cells at 1 uM incubated for 24 hrs by propidium iodide staining based flow cytometry relative to control; type: functional
# [15] = Induction of cell death in mouse MigA9 cells harboring mouse Hoxa9 gene assessed as propidium iodide-positive cells at 0.5 uM incubated for 48 hrs by propidium iodide staining based flow cytometry (reference value: 8.75 +/- 0.2%); type: functional
# [16] = Induction of cell death in mouse MigA9 cells harboring mouse Hoxa9 gene assessed as propidium iodide-positive cells at 1 uM incubated for 48 hrs by propidium iodide staining based flow cytometry (reference value: 8.75 +/- 0.2%); type: functional
# [17] = Induction of cell cycle arrest in mouse MigA9 cells harboring mouse Hoxa9 gene assessed as accumulation at sub-G1 phase at 0.5 uM incubated for 48 hrs by propidium iodide staining based flow cytometry (reference value: 0.76 +/- 0.1%); type: functional
# [18] = Induction of cell cycle arrest in mouse MigA9 cells expressing mouse Hoxa9 assessed as accumulation at G0/G1 phase at 0.5 uM incubated for 48 hrs by EdU/propidium iodide staining based flow cytometry (reference value: 48.77 +/- 0.19%); type: functional
# [19] = Induction of cell cycle arrest in mouse MigA9 cells expressing mouse Hoxa9 assessed as accumulation at S phase at 0.5 uM incubated for 48 hrs by EdU/propidium iodide staining based flow cytometry (reference value: 46.68 +/- 0.21%); type: functional
# [20] = Induction of cell cycle arrest in mouse MigA9 cells expressing mouse Hoxa9 assessed as accumulation at G2/M phase at 0.5 uM incubated for 48 hrs by EdU/propidium iodide staining based flow cytometry (reference value: 4.55 +/- 0.16%); type: functional
# HOXA9 DNA binding site [21] = conditions: dose 0.5-1 µM
# [22] = Cytotoxicity against mouse MigA9 cells harboring mouse Hoxa9 gene incubated for 72 hrs by MTS assay; type: functional, cell-based; conditions: MigA9, 72 h
# [23] = Induction of cell death in mouse MigA9 cells harboring mouse Hoxa9 gene assessed as propidium iodide-positive cells at 20 uM incubated for 24 hrs by propidium iodide staining based flow cytometry (reference value: 9.06 +/- 0.53%); type: functional
# [24] = Induction of cell cycle arrest in mouse MigA9 cells harboring mouse Hoxa9 gene assessed as accumulation at sub-G1 phase at 20 uM incubated for 48 hrs by propidium iodide staining based flow cytometry (reference value: 0.76 +/- 0.1%); type: functional
smiles,measurement,setting,value
COc1cc(C(=N)N)ccc1-c1ccc(-c2cc3ccc(C(=N)N)cc3[nH]2)o1,Drug transport,[1],Active
N=C(N)c1ccc(-c2ccc(-c3cc4ccc(C(=N)N)cc4[nH]3)s2)cc1,Activity,[2],7.42%
same,Activity,[3],77.87%
same,Activity,[4],33.64%
same,Drug transport,[1],Active
same,Activity,[5],77.92%
same,Activity,[6],9.15%
same,Activity,[7],12.93%
same,ΔTm,HOXA9 DNA binding site [8],> 10 °C
N=C(N)c1ccc(-c2ccc(-c3cc4ccc(C(=N)N)cc4[nH]3)o2)cc1,inhibition,HOXA9 DNA binding site [9],Active
same,Activity,"[10]; dose 15 µM, time 24 hrs",11.76%
same,Drug transport,[1],Active
same,ΔTm,HOXA9 DNA binding site [11],7 °C
same,ΔTm,HOXA9 DNA binding site [8],> 10 °C
N=C(N)c1ccc2nc(-c3ccc(-c4ccc(C(=N)N)nc4)o3)[nH]c2c1,Drug transport,[12],Active
same,inhibition,HOXA9 DNA binding site [9],inactive
Cc1cc(C(=N)N)ccc1-c1ccc(-c2nc3ccc(C(=N)N)cc3[nH]2)o1,Drug transport,[12],Active
N=C(Nc1ccc(-c2ccc(-c3ccc(NC(=N)c4ccccc4)cc3)[nH]2)cc1)c1ccccc1,Activity,[13],12.9%
same,Activity,[14],68.8%
same,Activity,[15],18.33%
same,Activity,[16],99.33%
same,Activity,[17],2.47%
same,Drug transport,[1],Active
same,Activity,[18],53.83%
same,Activity,[19],38.84%
same,Activity,[20],7.32%
same,ΔTm,HOXA9 DNA binding site [21],8 °C
Cn1c(-c2ccc(-c3ccc(-c4nc5cc(C(=N)N)ccc5n4C)s3)cc2)nc2cc(C(=N)N)ccc21,inhibition,HOXA9 DNA binding site [9],inactive
same,Drug transport,[1],Active
N=C(N)c1ccc(-c2ccc(-c3cc4ccc(C(=N)N)cc4[nH]3)s2)nc1,Activity,[2],6.21%
same,Activity,[3],39.4%
same,Activity,[4],4.48%
same,Activity,[5],67.95%
same,Activity,[6],22.55%
same,Activity,[7],9.5%
same,ΔTm,HOXA9 DNA binding site [11],7 °C
same,ΔTm,HOXA9 DNA binding site [8],> 10 °C
N=C(N)c1ccc(-n2ccc(-c3nc4ccc(C(=N)N)cc4[nH]3)n2)cc1,IC50,[22],> 50 µM
same,Activity,"[10]; miga9, at 15 µM",8.64%
same,Activity,"[23]; miga9, at 20 µM",10.43%
same,Activity,[24],0.67%
Cn1c(-c2ccc(-c3ccc(C(=N)N)cc3)s2)nc2cc(C(=N)N)ccc21,inhibition,HOXA9 DNA binding site [9],inactive
same,Drug transport,[1],Active
CC(C)n1c(-c2ccc(-c3ccc(C(=N)N)cc3)s2)nc2cc(-c3ccc(C(=N)N)cc3)ccc21,Drug transport,[1],Active
N=C(N)c1ccc(-c2ccc(-c3nc4cc(C(=N)N)ccc4[nH]3)o2)cc1,Drug transport,[12],Active
same,inhibition,HOXA9 DNA binding site [9],inactive
N=C(N)c1ccc(-c2cccc(-c3nc4cc(C(=N)N)ccc4[nH]3)c2)cc1,Drug transport,[1],Not Active
N=C(N)c1ccc(-c2ccc(-c3ccc4ccc(C(=N)N)cc4c3)cc2)cc1,ΔTm,HOXA9 DNA binding site [21],8 °C
N=C(N)c1ccc(-c2cnc(-c3ccc(C(=N)N)cc3)s2)cc1,inhibition,HOXA9 DNA binding site [9],Active
same,Activity,"[10]; dose 15 µM, time 24 hrs",5.69%
same,Activity,"[23]; dose 20 µM, time 24 hrs",5.91%
same,Activity,[24],1.71%
same,Drug transport,[1],Active
N=C(N)c1ccc(-c2ccc(-c3nc4ccc(C(=N)N)cc4[nH]3)o2)c(O)c1,Drug transport,[12],Active
N=C(N)c1ccc(-c2ccc(-c3ccc(C(=N)N)cc3)o2)cc1 [FURAMIDINE],Drug transport,[1],Active
Cn1c(-c2ccc(-c3ccc(C(=N)N)cc3)o2)nc2cc(C(=N)N)ccc21,inhibition,HOXA9 DNA binding site [9],inactive
same,Drug transport,[1],Active
N=C(N)c1ccc(-c2cnc(-c3ccc(C(=N)N)cc3)o2)cc1,inhibition,HOXA9 DNA binding site [9],inactive
N=C(N)c1ccc(-c2ccc(-c3cc4cc(C(=N)N)ccc4[nH]3)o2)nc1,Drug transport,[1],Active
N=C(N)c1ccc(-c2ccc(-c3nc4ccc(C(=N)N)cc4[nH]3)o2)nc1,Drug transport,[12],Active
same,Drug transport,[1],Active
